From the METLIN SMRT retention time set (Domingo-Almenara et al. 2019)

Assay: gradient 5% acetonitrile 3 min, to 50% in 2 min, to 85% in 15 min, held 3 min, 100 µL/min
Details: column: Zorbax Extend-C18 2.1 x 50 mm; eluents: water / acetonitrile, 0.1% formic acid
In short: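 Retention times come from adduct peaks that were picked computationally and then checked by hand. The standards, pure and pooled in mixtures of ~100 molecules, were run on a Zorbax Extend-C18 column (2.1 × 50 mm, 1.8 μm) at 100 μL/min with water and acetonitrile, each with 0.1% formic acid. Detection was by quadrupole time-of-flight mass spectrometry in positive and negative ionization mode, with a dead volume of 40 μL and a dwell volume of 900 μL.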

| Structure (SMILES) | RP-LC retention time [s] |
| --- | --- |
| COCCC1CCOC2(CCN(C(=O)C3CCN(C(C)=O)CC3)CC2)C1 (centres undefined) | 646 |
| Cc1ccccc1S(=O)(=O)N1CCC(c2cc(N)on2)CC1 | 779 |
| CCc1noc(C2(NC(=O)c3cccc(F)c3)CCCCC2)n1 | 949 |
| [N-]=[N+]=Nc1ccc2c(c1)Sc1ccccc1N2CCCCN1CCN(Cc2ccc(C(=O)c3ccccc3)cc2)CC1 | 1040 |
| Cc1cccc(CN2C[C@@H]3C(=O)N(C)C(=O)[C@@H]3C2)c1 | 583 |
| CCCn1cc(CCNC(=O)Nc2cccc(Cl)c2F)c2cccnc21 | 900 |
| COc1ccc(-c2ccc(=O)n(CCCNS(=O)(=O)/C=C/c3ccccc3)n2)cc1 | 830 |
| O=C(NCC1(c2ccccc2)CCOCC1)C(=O)Nc1cc2c3c(c1)CCC(=O)N3CCC2 | 762 |
| CC(C)(Cc1ccc2ccccc2c1)NC[C@@H](O)COc1cccc(Cl)c1C#N | 857 |
| CCCNc1cc(N2CCC(CCC(=O)Nc3ccc(C)cc3C)CC2)ncn1 | 733 |
| Cc1cc(=O)n(CCc2ccccc2)c(N2CCSCC2)n1 | 897 |
| Cc1sc(NC(=O)c2ccco2)nc1-c1ccc2c(c1)N(C)C(=O)CO2 | 844 |
| CN(C)CCNC(=O)c1ccc(CS(=O)c2ccc(Br)cc2)o1 (centres undefined) | 590 |
| CCOC(=O)c1cccc(NC(=O)NC2CCN(c3ccc(F)cc3)C2=O)c1 (centres undefined) | 824 |
| CCOc1ccc(-c2cc3c(SCC)nccn3n2)cc1 | 1300 |
| CCN(CC)S(=O)(=O)c1cc(-c2nnc(-c3ccccc3)o2)ccc1OC | 977 |
| CC(C)n1c(=O)oc2cc(-c3noc(COc4ccc(Cl)cc4)n3)ccc21 | 1170 |
| O=c1n(CC2CC2)nc2n1CCC(NS(=O)(=O)Cc1ccccc1F)CC2 (centres undefined) | 706 |
| CCNc1cc(N2CCC(CCC(=O)NCc3ccccc3OC)CC2)ncn1 | 650 |
| COc1ccc(-c2ccnn2-c2ccc(SCC(=O)NC(C)C)nn2)cc1 | 932 |
| Cc1cc(=O)n(CC(=O)Nc2ccc3c(c2)OCCO3)c(N2CCOCC2)n1 | 634 |
| CCN1C(=O)C(CC(=O)NCCOC)Sc2ncccc21 (centres undefined) | 593 |

| Structure (SMILES) | RP-LC retention time [s] |
| --- | --- |
| O=C(NCc1cccs1)c1cccc2c1CCN2C(=O)c1ccc(F)cc1 | 858 |
| COCCN1CC2(CCCC2)N(Cc2cc(C(F)(F)F)ccc2Cl)CC1=O | 1060 |
| O=c1n(Cc2ccc(F)cc2)nc2c(S(=O)(=O)N3CCN(c4ccc(F)cc4)CC3)cccn12 | 991 |
| COc1ccc2c(c1)c(CC(=O)O)c(C)n2Cc1ccc(Cl)cc1 | 1060 |
| Cc1ccc(NC(=O)C2CCN(S(C)(=O)=O)c3ccccc3O2)cc1Cl (centres undefined) | 985 |
| O=C(c1ccccc1Br)N1CCN=C1N1CCN(c2ccccc2F)CC1 | 757 |
| Cc1cc(C(=O)NC(C)c2ccccc2)n(-c2ccccc2)n1 (centres undefined) | 850 |
| COc1ccc(C2CC(=O)c3cnc(N4CCN(c5ccccn5)CC4)nc3C2)c(OC)c1 (centres undefined) | 713 |
| CCn1cnc2c1CN(S(=O)(=O)c1ccc(C#N)cc1)CC2 | 616 |
| CCN1c2ccc(C)cc2C(=O)NC12CCN(C(=O)Cc1ccccc1)CC2 | 820 |
| CCC(C)C(=O)N1CCCN(C2=NS(=O)(=O)C(c3ccc(C(C)C)cc3)=C2C)CC1 (centres undefined) | 974 |
| CCC(C)NC(=O)CN1C(=O)CCc2cc(S(=O)(=O)N3CCC(C)CC3)ccc21 (centres undefined) | 858 |
| Cc1cc(C(=O)NC2CCCC2)c2cc(F)ccc2n1 | 710 |
| CCn1ccc(C(=O)Nc2ccc(OCc3nnc(-c4ccccc4)o3)cc2)n1 | 868 |
| NS(=O)(=O)c1ccc(Cl)c(-c2nnc(-c3ccccc3)o2)c1 | 788 |
| CCOC(=O)c1nnc2c(-c3ccc(Cl)cc3)c(C)nn2c1N | 872 |
| COc1ccccc1N1CCN(C(=O)CN2C(=O)NC(c3ccc(Cl)cc3)C3=C2COC3=O)CC1 (centres undefined) | 770 |
| COC(=O)c1ccc(Nc2c(C(=O)N3CCCC3)cnc3nc(C)ccc23)cc1 | 598 |
| COc1ccc(C2CC(=O)c3cnc4c(c3C2)c(=O)n(C)c(=O)n4C)cc1 (centres undefined) | 913 |
| Cc1ccc(S(=O)(=O)N2CCC(C(=O)NCc3csc(-c4cccs4)n3)CC2)cc1C | 950 |
| CCn1c(=O)c(C(=O)N2CCN(C3CCCCC3)CC2)nc2cccnc21 | 520 |
| Cc1ccsc1C(=O)N1CCN(c2ccc(-c3nc(C)c(C)s3)cn2)CC1 | 1120 |
